This note sets out measurements from patent publication US11427548B2 (Arvinas Operations, Inc., priority 2015, dated 2022).

The assay addresses T1, Androgen Receptor (Homo sapiens, UniProt P10275).
T1 construct: endogenous in cells; host or cells: VCaP cells
T1 sequence (P10275 1-920): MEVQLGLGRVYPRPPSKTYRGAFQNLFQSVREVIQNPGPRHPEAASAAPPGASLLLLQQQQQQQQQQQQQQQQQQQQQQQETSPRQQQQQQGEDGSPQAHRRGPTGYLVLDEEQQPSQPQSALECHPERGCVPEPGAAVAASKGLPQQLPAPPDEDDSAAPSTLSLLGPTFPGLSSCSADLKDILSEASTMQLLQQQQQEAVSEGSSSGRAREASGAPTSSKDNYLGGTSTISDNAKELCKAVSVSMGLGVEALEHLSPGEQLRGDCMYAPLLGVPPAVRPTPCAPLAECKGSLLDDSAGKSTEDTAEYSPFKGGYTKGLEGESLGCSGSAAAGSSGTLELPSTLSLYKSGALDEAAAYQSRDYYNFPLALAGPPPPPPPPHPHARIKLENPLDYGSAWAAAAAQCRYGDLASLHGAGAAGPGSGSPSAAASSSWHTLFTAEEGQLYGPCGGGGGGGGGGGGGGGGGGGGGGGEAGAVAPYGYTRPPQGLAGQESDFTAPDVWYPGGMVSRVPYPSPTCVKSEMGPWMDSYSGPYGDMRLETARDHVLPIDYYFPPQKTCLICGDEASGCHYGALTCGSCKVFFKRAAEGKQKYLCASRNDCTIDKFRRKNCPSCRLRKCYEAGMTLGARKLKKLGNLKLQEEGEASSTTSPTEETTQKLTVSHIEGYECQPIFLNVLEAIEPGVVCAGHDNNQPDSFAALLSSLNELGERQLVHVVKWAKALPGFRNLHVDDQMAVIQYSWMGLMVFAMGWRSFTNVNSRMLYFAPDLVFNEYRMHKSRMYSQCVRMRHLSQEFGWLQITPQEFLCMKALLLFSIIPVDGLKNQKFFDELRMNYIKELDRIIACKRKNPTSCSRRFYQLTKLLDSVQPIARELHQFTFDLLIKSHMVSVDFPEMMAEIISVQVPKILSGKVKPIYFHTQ
As to the kind of experiment: Androgen Receptor ELISA assay (PathScan AR ELISA) in VCaP cells: AR degradation, Dmax and DC50. It counts as cell-based. On the procedure:
1. Androgen Receptor ELISA Assay.
The protocols used with VCaP cells are described below. The androgen receptor ELISA assay was performed using PathScan AR ELISA (Cell Signaling Catalog #12850) according to the following assay steps:
VCaP cells are seeded at 30,000 cells/well at a volume of 200 μL/well in VCaP assay medium [Phenol red free RPMI (Gibco Cat #11835-030); 5% Charcoal Stripped (Dextran treated) FBS (Omega Scientific, Cat #FB-04); Pen/Strep Life Technologies (Gibco Cat #: 10378-016); 0.1 nM R1881 (Sigma, Cat #R0908) is added upon the start of the assay, not during initial plating of the cells) in Corning 3904 plates. The cells are grown for a minimum of 3 days.
First, cells are dosed with compounds diluted in 0.1% DMSO—use a polypropylene plate according to the following protocol: (1)(i) make 1000× stock plate in DMSO; (ii) 20 mM stock diluted 1/6.7 with DMSO (5 μL+28.3 μL DMSO)=3 mM into row H; (iii) perform serial dilutions in ½ log doses (10 μL of PROTAC+20 μL DMSO) from row H towards row B. Reserve row A for DMSO; (iv) 7 doses total (final concentration in this 1000× plate will be 3 mM, 1 mM, 333 μM, 111 μM, etc). (2)(i) Make 10× stock plate in media; (ii) transfer 2.5 μL of the 1000× stock to a new 10× stock plate (use 12 channel pipet, start at A (DMSO control) work thru H. When 247.5 μL of media is added to this plate, it will serve as a 10× stock; (iii) make media+1 nM R1881 for making 10× stock plate; (iv) add 247.5 μL of media with 1 nM R1881 to each well of the 10× stock plate, mix.
Then 22 μL of 10× stock is added to cells and incubated for 24 h. 1× Cell Signaling Cell lysis buffer is made (Catalogue #9803; comes with the kit)—prepare for 50 μL/well. Keep on ice. Media is aspirated, and 50 μL 1× cell lysis buffer/well is added. The cells are placed on ice for 10 minutes. The solution is mixed and transferred to PCR plate, and centrifuged at 4C for 10 minutes at 4000 rpm.
5 μL is transferred to fresh plate (use immediately or freeze −80 C); 115 μL ELISA Dilutant is added (0.15 ug/ml-0.075 ug/ml; comes with the PathScan ELISA).
Add 100 μL/well AR Elisa; cover and shake, 37 C for 2 hrs; dump, tap, wash 4×200 μL ELISA wash buffer; add 100 μL/well mouse AR detection Ab; cover and shake, 37 C for 1 hr; dump, tap, wash 4×200 μL ELISA wash buffer; add 100 μL/well anti-mouse—HRP conjugated Ab (comes with the kit); cover and shake, 37 C for 30 min; allow TMB reagent to come to room temperature; dump, tap, wash 4×200 μL Elisa wash buffer; tap; add 100 μL TMB, shake 5 min—while watching color. Add the stop reagent when light blue color develops. Add 100 μL Stop solution; shake and read at 450 nm.

Where [1] appears, read: read-out: VCaP DC50; concentration that caused 50% Androgen Receptor degradation, VCaP cells.

Read-outs that look alike come from different tables or passages of the source. Bounds are passed on as bounds.

As to `CC(C)(C)[C@H](NC(=O)COCCCOCCCCCOc1ccc(N2C(=S)N(c3ccc(C#N)c(C(F)(F)F)c3)C(=O)C2(C)C)cc1)C(=O)N1C[C@H](O)C[C@H]1C(=O)NCc1ccc(Cl)cc1` [Example 14, (2S,4R)-N-[(4-chlorophenyl)methyl]-1-[(2S)-2-[2-(3-{[5-(4-{3-[4-cyano-3-(trifluoromethyl)phenyl]-5,5-dimethyl-4-oxo-2-sulfanylideneimidazolidin-1-yl}phenoxy)pentyl]oxy}propoxy)acetamido]-3,3-dimethylbutanoyl]-4-hydroxypyrrolidine-2-carboxamide], under setting [1], the DC50 (in general, the concentration at which degradation of the target reaches its halfway point) was more than 0.501 µM.

Consider `CC(C)(C)[C@H](NC(=O)COCCCOCCCCCOc1ccc(N2C(=S)N(c3ccc(C#N)c(C(F)(F)F)c3)C(=O)C2(C)C)cc1)C(=O)N1C[C@H](O)C[C@H]1C(=O)NCc1ccc(C#N)cc1` [Example 15, (2S,4R)-1-[(2S)-2-[2-(3-{[5-(4-{3-[4-cyano-3-(trifluoromethyl)phenyl]-5,5-dimethyl-4-oxo-2-sulfanylideneimidazolidin-1-yl}phenoxy)pentyl]oxy}propoxy)acetamido]-3,3-dimethylbutanoyl]-N-[(4-cyanophenyl)methyl]-4-hydroxypyrrolidine-2-carboxamide], for which, for the setting “VCaP, read-out: VCaP Dmax (%)”, the Dmax (commonly the largest share of the target that was removed) was 26 to 50%. The DC50 under setting [1] is less than 0.05 µM. As for `Cc1ncsc1-c1ccc(CNC(=O)[C@@H]2C[C@@H](O)CN2C(=O)[C@@H](NC(=O)COCCOCCOCCOc2ccc(N3C(=S)N(c4ccc(C#N)c(C(F)(F)F)c4)C(=O)C3(C)C)cc2)C(C)(C)C)cc1` [Example 16, (2S,4R)-1-[(2S)-2-[2-(2-{2-[2-(4-{3-[4-cyano-3-(trifluoromethyl)phenyl]-5,5-dimethyl-4-oxo-2-sulfanylideneimidazolidin-1-yl}phenoxy)ethoxy]ethoxy}ethoxy)acetamido]-3,3-dimethylbutanoyl]-4-hydroxy-N-{[4-(4-methyl-1,3-thiazol-5-yl)phenyl]methyl}pyrrolidine-2-carboxamide], the Dmax (VCaP, read-out: VCaP Dmax (%)) was in the range of 26 to 50%. For the compound `Cc1ncsc1-c1ccc(CNC(=O)[C@@H]2C[C@@H](O)CN2C(=O)[C@@H](NC(=O)COCCCCOCCCCOc2ccc(N3C(=S)N(c4ccc(C#N)c(C(F)(F)F)c4)C(=O)C3(C)C)cc2F)C(C)(C)C)cc1` [Example 26, (2S,4R)-1-[(2S)-2-(2-{4-[4-(4-{3-[4-cyano-3-(trifluoromethyl)phenyl]-5,5-dimethyl-4-oxo-2-sulfanylideneimidazolidin-1-yl}-2-fluorophenoxy)butoxy]butoxy}acetamido)-3,3-dimethylbutanoyl]-4-hydroxy-N-{[4-(4-methyl-1,3-thiazol-5-yl)phenyl]methyl}pyrrolidine-2-carboxamide], the Dmax (VCaP, read-out: VCaP Dmax (%)) lay within 51 to 70%. Under setting [1], the DC50 is less than 0.05 µM. The like results for `CC(C)(C)[C@H](NC(=O)COCCCOCCCCOc1ccc(N2C(=S)N(c3ccc(C#N)c(C(F)(F)F)c3)C(=O)C2(C)C)cc1)C(=O)N1C[C@H](O)C[C@H]1C(=O)NCc1ccc(-c2cncs2)cc1` [Example 33, (2S,4R)-1-[(2S)-2-(2-{3-[4-(4-{3-[4-cyano-3-(trifluoromethyl)phenyl]-5,5-dimethyl-4-oxo-2-sulfanylideneimidazolidin-1-yl}phenoxy)butoxy]propoxy}acetamido)-3,3-dimethylbutanoyl]-4-hydroxy-N-{[4-(1,3-thiazol-5-yl)phenyl]methyl}pyrrolidine-2-carboxamide] were, in that order, 51 to 70% and less than 0.05 µM.

Regarding `CC(C)(C)[C@H](NC(=O)COCCCOCCCCOc1ccc(N2C(=S)N(c3ccc(C#N)c(C(F)(F)F)c3)C(=O)C2(C)C)cc1)C(=O)N1C[C@H](O)C[C@H]1C(=O)NCc1ccc(-c2cnco2)cc1` [Example 34, (2S,4R)-1-[(2S)-2-(2-{3-[4-(4-{3-[4-cyano-3-(trifluoromethyl)phenyl]-5,5-dimethyl-4-oxo-2-sulfanylideneimidazolidin-1-yl}phenoxy)butoxy]propoxy}acetamido)-3,3-dimethylbutanoyl]-4-hydroxy-N-{[4-(l,3-oxazol-5-yl)phenyl]methyl}pyrrolidine-2-carboxamide], the Dmax (VCaP, read-out: VCaP Dmax (%)) is more than 71%. For the same compound, the DC50 under setting [1] is less than 0.05 µM. For `Cc1ncoc1-c1ccc(CNC(=O)[C@@H]2C[C@@H](O)CN2C(=O)[C@@H](NC(=O)COCCCOCCCCOc2ccc(N3C(=S)N(c4ccc(C#N)c(C(F)(F)F)c4)C(=O)C3(C)C)cc2)C(C)(C)C)cc1` [Example 35, (2S,4R)-1-[(2S)-2-(2-{3-[4-(4-{3-[4-cyano-3-(trifluoromethyl)phenyl]-5,5-dimethyl-4-oxo-2-sulfanylideneimidazolidin-1-yl}phenoxy)butoxy]propoxy}acetamido)-3,3-dimethylbutanoyl]-4-hydroxy-N-{[4-(4-methyl-1,3-oxazol-5-yl)phenyl]methyl}pyrrolidine-2-carboxamide] the same measures were 51 to 70% and less than 0.05 µM. The like results for `CC(C)[C@H](NC(=O)COCCCOCCCCOc1ccc(N2C(=S)N(c3ccc(C#N)c(Cl)c3)C(=O)C2(C)C)cc1)C(=O)N1C[C@H](O)C[C@H]1C(=O)NCc1ccc(-c2cncs2)cc1` [Example 36] were, in that order, 26 to 50% and less than 0.05 µM.

As to `Cc1ncsc1-c1ccc(CNC(=O)[C@@H]2C[C@@H](O)CN2C(=O)[C@@H](NC(=O)COCCCOCCCCOc2ccc(N3C(=S)N(c4cnc(C#N)c(Cl)c4)C(=O)C3(C)C)cc2)C(C)(C)C)cc1` [Example 37, (2S,4R)-1-[(2S)-2-{2-[3-(4-{4-[3-(5-chloro-6-cyanopyridin-3-yl)-5,5-dimethyl-4-oxo-2-sulfanylideneimidazolidin-1-yl]phenoxy}butoxy)propoxy]acetamido}-3,3-dimethylbutanoyl]-4-hydroxy-N-{[4-(4-methyl-1,3-thiazol-5-yl)phenyl]methyl}pyrrolidine-2-carboxamide], the Dmax (VCaP, highest percentage of Androgen Receptor degradation observed, VCaP cells; read-out: VCaP Dmax (%)) was more than 71%. In addition, the DC50 (concentration that caused 50% Androgen Receptor degradation, VCaP cells; read-out: VCaP DC50) was less than 0.05 µM. Take `Cc1ncoc1-c1ccc(CNC(=O)[C@@H]2C[C@@H](O)CN2C(=O)[C@@H](NC(=O)COCCCOCCCCOc2ccc(N3C(=S)N(c4ccc(C#N)c(Cl)c4)C(=O)C3(C)C)cc2)C(C)(C)C)cc1` [Example 38, (2S,4R)-1-[(2S)-2-{2-[3-(4-{4-[3-(3-chloro-4-cyanophenyl)-5,5-dimethyl-4-oxo-2-sulfanylideneimidazolidin-1-yl]phenoxy}butoxy)propoxy]acetamido}-3,3-dimethylbutanoyl]-4-hydroxy-N-{[4-(4-methyl-1,3-oxazol-5-yl)phenyl]methyl}pyrrolidine-2-carboxamide]: the Dmax (VCaP, read-out: VCaP Dmax (%)) lay in the range of 51 to 70%. Under setting [1], the DC50 was less than 0.05 µM.
